One test concerns the target TRKA (Homo sapiens (Human), UniProt P04629). As to the kind of experiment: Radio-tagged HotSpot kinase assay, TRKA.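 Further: kinase activity measured through incorporation of 33P from labelled ATP into substrate, 120 min at room temperature, relative to a DMSO-only blank control, reported as inhibition.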
The next test concerns Ba/F3-LMNA-NTRK1-G595R. As to the kind of experiment: Inhibition of cell proliferation (CellTiter-Glo), Ba/F3-LMNA-NTRK1-G595R. Particulars: 72 hours. The class given is cell-based. Here is the method: (§1) The experiment of inhibiting cell proliferation by compounds was carried out in Hefei Zhongkeprecedo Biomedical Technology Co., Ltd. The Ba/F3 engineered cell line stably transfected with different kinase genes was recovered with RPMI 1640 medium (Biological Industries, Israel)+10% fetal bovine serum (Biological Industries, Israel)+1% double antibody (Penicillin Streptomycin solution, Coring, USA) and cultivated two generations. The logarithmic growth phase cell suspension was taken, and 2000 cells/well were inoculated on 96-well white cell culture plate (Corning 3917, NY, USA) with a volume of 95 μL per well. 5 μL of 20×DMSO solution of the compound to be tested was added into the culture plate containing 95 μL of cell suspension. The blank control group was added with corresponding volume of DMSO, mixed well, and incubated in a 5% CO2 incubator at 37° C. for 72 hours. CellTiter-Glo was used to detect cell viability.

The subject of the next test is Ba/F3-LMNA-NTRK1. Nature of the test: Inhibition of cell proliferation (CellTiter-Glo), Ba/F3-LMNA-NTRK1. The class given is cell-based. Particulars: 72 hours. Here is the method:
as §1

In a further test the test system is Ba/F3-CD74-ROS1. Nature of the test: Inhibition of cell proliferation (CellTiter-Glo), Ba/F3-CD74-ROS1. The format is cell-based. Particulars: 72 hours. Here is the method:
as §1
In general terms: ATP-based viability assays read luminescence as a measure of living cells.

For the next test, the system named is Ba/F3-CD74-ROS1-G2032R. Nature of the test: Inhibition of cell proliferation (CellTiter-Glo), Ba/F3-CD74-ROS1-G2032R.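 Further: Ba/F3 cell line expressing the CD74-ROS1 fusion with G2032R mutation.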 The class given is cell-based. Particulars: 72 hours. On the procedure: as §1
The target of a further test is TRKA (G677C) (Homo sapiens, UniProt P04629, G667C). As to the kind of experiment: Radio-tagged HotSpot kinase assay, TRKA (G677C). Particulars: 33P-ATP, 120 min, room temperature. The format is biochemical.
TRKA (G677C), sequence (P04629 33-796 G667C limits assumed): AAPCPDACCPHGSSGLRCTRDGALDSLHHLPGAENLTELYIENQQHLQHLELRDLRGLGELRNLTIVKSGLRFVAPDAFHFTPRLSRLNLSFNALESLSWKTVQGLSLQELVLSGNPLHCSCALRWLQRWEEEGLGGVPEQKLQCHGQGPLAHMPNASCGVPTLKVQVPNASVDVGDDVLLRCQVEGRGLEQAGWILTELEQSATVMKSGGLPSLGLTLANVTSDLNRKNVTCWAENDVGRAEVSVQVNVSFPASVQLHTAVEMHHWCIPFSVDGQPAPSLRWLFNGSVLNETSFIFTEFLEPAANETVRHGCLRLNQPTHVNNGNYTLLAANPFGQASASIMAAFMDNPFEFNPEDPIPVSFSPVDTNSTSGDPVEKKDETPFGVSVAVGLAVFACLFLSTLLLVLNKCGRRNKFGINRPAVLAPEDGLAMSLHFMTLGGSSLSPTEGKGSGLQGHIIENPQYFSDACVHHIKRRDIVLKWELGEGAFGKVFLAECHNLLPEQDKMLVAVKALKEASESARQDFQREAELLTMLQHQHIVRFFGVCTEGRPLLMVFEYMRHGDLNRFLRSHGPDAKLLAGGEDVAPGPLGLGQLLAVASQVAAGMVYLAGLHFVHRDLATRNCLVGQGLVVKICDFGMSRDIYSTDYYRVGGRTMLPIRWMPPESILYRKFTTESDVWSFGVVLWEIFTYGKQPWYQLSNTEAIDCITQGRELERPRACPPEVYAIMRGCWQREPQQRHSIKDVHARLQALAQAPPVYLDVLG
The target in a further test is TRKC (Homo sapiens (Human), UniProt Q16288). Nature of the test: Radio-tagged HotSpot kinase assay, TRKC. Particulars: 33P-ATP, 120 min, room temperature. The format is biochemical.
TRKC, sequence (Q16288 32-839): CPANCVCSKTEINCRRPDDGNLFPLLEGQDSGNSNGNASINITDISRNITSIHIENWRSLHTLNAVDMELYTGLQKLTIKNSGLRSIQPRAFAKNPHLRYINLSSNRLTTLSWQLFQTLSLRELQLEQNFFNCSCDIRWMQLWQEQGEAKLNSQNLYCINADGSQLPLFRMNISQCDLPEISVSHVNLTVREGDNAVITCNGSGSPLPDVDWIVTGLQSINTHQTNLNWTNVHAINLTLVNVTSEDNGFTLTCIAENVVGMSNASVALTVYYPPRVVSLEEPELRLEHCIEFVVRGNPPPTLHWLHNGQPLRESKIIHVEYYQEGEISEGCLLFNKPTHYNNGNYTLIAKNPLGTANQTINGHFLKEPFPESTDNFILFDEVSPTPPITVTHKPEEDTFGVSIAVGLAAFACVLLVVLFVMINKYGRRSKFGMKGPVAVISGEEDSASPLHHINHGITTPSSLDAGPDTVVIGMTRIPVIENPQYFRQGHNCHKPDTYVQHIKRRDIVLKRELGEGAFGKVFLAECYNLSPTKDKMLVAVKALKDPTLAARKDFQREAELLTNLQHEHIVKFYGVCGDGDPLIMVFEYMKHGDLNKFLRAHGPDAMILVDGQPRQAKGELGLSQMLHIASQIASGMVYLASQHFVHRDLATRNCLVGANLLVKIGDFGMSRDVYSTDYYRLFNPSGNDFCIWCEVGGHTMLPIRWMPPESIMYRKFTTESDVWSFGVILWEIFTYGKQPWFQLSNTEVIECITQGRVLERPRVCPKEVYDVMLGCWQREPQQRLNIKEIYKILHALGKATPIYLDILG
Another test has as its target ROS1 (Homo sapiens (Human), UniProt P08922). Nature of the test: Radio-tagged HotSpot kinase assay, ROS1.
The target of a further test is ROS1 (G2032R) (Homo sapiens (Human), UniProt P08922, G2032R). Nature of the test: Radio-tagged HotSpot kinase assay, ROS1 (G2032R).
ROS1 (G2032R), sequence (P08922 28-2347 G2032R): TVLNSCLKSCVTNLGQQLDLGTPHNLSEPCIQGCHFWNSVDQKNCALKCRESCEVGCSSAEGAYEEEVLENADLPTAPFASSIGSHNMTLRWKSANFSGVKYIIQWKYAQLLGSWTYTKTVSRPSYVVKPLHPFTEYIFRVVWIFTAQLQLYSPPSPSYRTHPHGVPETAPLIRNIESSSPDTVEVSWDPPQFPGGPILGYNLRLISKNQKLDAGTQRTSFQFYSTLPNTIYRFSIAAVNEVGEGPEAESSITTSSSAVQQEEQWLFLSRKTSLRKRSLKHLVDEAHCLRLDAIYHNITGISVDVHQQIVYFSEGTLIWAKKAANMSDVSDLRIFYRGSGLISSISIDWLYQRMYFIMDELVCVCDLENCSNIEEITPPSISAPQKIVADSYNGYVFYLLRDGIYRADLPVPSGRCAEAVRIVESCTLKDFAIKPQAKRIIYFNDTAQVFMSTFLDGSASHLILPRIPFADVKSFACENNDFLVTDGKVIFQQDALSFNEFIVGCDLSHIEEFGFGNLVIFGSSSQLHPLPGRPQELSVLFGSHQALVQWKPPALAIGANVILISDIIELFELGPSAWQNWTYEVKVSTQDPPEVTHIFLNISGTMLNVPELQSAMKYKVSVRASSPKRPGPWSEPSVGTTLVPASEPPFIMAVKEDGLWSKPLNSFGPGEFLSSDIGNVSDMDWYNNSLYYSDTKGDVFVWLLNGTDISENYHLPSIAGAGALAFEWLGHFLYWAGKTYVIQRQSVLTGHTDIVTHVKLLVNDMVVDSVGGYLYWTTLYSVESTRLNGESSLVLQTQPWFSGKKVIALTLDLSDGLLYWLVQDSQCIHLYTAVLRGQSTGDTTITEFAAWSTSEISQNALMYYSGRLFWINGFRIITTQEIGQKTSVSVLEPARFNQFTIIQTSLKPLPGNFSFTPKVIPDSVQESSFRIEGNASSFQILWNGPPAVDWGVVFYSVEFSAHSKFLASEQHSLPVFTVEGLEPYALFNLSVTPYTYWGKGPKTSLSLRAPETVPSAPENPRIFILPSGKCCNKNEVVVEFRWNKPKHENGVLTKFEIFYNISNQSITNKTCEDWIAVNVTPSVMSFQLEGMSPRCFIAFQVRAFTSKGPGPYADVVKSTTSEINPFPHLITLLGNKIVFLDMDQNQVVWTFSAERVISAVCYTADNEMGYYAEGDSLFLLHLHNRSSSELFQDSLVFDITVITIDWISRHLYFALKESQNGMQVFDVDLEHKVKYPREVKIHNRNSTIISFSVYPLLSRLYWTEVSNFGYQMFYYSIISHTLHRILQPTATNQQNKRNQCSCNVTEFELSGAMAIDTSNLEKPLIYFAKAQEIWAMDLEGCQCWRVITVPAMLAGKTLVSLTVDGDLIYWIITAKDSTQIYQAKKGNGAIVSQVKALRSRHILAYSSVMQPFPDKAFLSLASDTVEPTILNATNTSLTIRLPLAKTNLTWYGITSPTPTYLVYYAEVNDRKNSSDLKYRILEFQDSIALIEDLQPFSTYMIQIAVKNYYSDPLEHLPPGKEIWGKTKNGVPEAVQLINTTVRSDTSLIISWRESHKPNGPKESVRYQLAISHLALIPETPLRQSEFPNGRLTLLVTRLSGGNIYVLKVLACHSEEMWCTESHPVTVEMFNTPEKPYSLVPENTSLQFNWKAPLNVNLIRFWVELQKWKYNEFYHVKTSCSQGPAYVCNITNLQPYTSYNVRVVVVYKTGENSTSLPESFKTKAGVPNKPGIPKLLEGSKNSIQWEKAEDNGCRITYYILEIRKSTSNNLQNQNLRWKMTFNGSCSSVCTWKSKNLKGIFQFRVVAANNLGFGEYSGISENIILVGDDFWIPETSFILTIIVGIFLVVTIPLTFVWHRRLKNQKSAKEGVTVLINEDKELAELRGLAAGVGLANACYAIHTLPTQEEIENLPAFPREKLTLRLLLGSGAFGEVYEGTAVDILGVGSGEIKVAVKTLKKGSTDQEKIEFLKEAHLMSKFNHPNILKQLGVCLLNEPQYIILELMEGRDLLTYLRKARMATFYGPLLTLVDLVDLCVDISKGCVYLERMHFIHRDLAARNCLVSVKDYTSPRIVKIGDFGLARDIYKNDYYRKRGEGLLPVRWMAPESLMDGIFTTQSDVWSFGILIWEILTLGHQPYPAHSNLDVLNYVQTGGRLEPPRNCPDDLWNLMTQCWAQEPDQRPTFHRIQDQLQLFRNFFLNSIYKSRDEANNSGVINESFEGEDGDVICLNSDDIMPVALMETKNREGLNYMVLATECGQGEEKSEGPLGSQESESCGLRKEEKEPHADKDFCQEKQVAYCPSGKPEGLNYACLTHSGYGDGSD
The next test has as its target TRKA (G595R) (Homo sapiens (Human), UniProt P04629, G595R). Nature of the test: Radio-tagged HotSpot kinase assay, TRKA (G595R).
For a further test, the target named is TRKB (Homo sapiens (Human), UniProt Q16620). As to the kind of experiment: Radio-tagged HotSpot kinase assay, TRKB. The class given is biochemical. Particulars: 33P-ATP, 120 min, room temperature.
TRKB, sequence (Q16620 32-822): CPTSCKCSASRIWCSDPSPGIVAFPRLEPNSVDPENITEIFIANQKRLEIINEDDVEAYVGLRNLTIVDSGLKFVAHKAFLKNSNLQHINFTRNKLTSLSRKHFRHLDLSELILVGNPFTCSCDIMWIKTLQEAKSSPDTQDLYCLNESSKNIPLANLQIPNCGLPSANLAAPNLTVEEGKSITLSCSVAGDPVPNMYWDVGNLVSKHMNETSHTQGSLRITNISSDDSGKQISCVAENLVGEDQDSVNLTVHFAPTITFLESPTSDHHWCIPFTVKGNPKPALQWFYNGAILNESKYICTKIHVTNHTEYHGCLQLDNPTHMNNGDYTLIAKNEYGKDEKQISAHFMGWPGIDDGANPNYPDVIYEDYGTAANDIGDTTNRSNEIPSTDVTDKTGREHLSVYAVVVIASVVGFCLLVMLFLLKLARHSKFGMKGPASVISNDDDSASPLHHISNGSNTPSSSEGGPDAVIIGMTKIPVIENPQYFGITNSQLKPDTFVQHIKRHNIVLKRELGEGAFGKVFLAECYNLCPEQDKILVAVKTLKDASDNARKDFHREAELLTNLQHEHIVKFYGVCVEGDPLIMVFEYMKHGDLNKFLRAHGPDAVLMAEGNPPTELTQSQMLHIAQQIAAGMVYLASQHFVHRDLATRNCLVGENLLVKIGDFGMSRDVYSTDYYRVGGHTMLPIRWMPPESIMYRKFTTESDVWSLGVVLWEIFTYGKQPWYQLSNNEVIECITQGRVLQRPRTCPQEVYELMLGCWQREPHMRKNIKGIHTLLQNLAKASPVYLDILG
Where [1] appears, read: read-out: TRKA (IC50/nM), 33P-ATP, 120 min, room temperature.
[2] abbreviates: read-out: ROS1 (IC50/nM), 33P-ATP, 120 min, room temperature.
The mark [3] stands for this setting: read-out: ROS1 (G2032R) (IC50/nM), 33P-ATP, 120 min, room temperature.
The mark [4] stands for this setting: read-out: TRKA (G595R) (IC50/nM), 33P-ATP, 120 min, room temperature.

Read-outs that look alike come from different tables or passages of the source.

ROS1, sequence (P08922 28-2347): as the sequence (P08922 28-2347 G2032R) above, with R2005G counted along it
TRKA, sequence (P04629 33-796): as the sequence (P04629 33-796 G667C limits assumed) above, with C635G counted along it
TRKA (G595R), sequence (P04629 33-796 G595R): as the sequence (P04629 33-796 G667C limits assumed) above, with G563R, C635G counted along it

Consider `CC(Nc1ccn2ncc(C3=NOC(C)(C)N3)c2n1)c1ccc(F)cc1` (racemic) [Example 25 racemate], for which, at TRKA, the IC50 lay within 50 to 500 nM.
Turning to `COc1ccc(F)c(Cl)c1[C@@H](C)Nc1ccn2ncc(C3=NOC(C)(C)N3)c2n1` [Example 1], the IC50 in the test with Ba/F3-LMNA-NTRK1-G595R came out at 458 nM.
For the compound `COc1c(F)ccc(F)c1[C@@H](C)Nc1ccn2ncc(C3=NOC(C)(C)N3)c2n1` [Example 2], in the test with Ba/F3-LMNA-NTRK1-G595R, the IC50 was 113 nM.
Regarding `C[C@@H](Nc1ccn2ncc(C3=NOC(C)(C)N3)c2n1)c1cc(F)ccc1OCC(F)(F)F` [Example 3], the IC50 with Ba/F3-LMNA-NTRK1 amounted to 2.1 nM; in the test on Ba/F3-CD74-ROS1 it was 2.8 nM; in the test with Ba/F3-LMNA-NTRK1-G595R it was 3.3 nM; with Ba/F3-CD74-ROS1-G2032R it was 10.3 nM.
The matching figures for `[2H]C([2H])([2H])Oc1ccc(F)cc1[C@@H](C)Nc1nc2c(C3=NOC(C)(C)N3)cnn2cc1F` [Example 6]: 2 nM, 6 nM, 2.8 nM and 43.7 nM.
Regarding `C[C@@H](Nc1ccn2ncc(C3=NOC(C)(C)N3)c2n1)c1cc(F)cc(F)c1F` [Example 13], the IC50 in the test with Ba/F3-LMNA-NTRK1 was 5.1 nM; in the test with Ba/F3-CD74-ROS1, 5.2 nM; with Ba/F3-LMNA-NTRK1-G595R, 12.5 nM; with Ba/F3-CD74-ROS1-G2032R, 45.9 nM.
On to `C[C@@H](Nc1ccn2ncc(C3=NOC(C)(C)N3)c2n1)c1cc(F)cnc1OCC(F)(F)F` [Example 15], for which the IC50 in the test on Ba/F3-LMNA-NTRK1 was determined as 3.8 nM; with Ba/F3-CD74-ROS1, 4.9 nM; in the test with Ba/F3-LMNA-NTRK1-G595R, 8.6 nM; in the test with Ba/F3-CD74-ROS1-G2032R, 34.8 nM.
For `C[C@@H](Nc1ccn2ncc(C3=NOC(C)(C)N3)c2n1)c1cc(F)ccc1OC(F)(F)F` [Example 17], in that order: 2.3 nM, 2.8 nM, 5.1 nM and 23.5 nM.
In the test on Ba/F3-CD74-ROS1-G2032R, `CCCC1(C)NC(c2cnn3ccc(N[C@H](C)c4cc(F)ccc4OC)nc23)=NO1` (some centres unmarked) [Example 19] displayed an IC50 of 140 nM.
As to `COc1ccc(F)cc1[C@@H](C)Nc1nc2c(C3=NOC(C)(C)N3)cnn2cc1F` [Example 20], the IC50 in the test with Ba/F3-CD74-ROS1-G2032R was determined as 43.6 nM.
As to `C[C@H](Nc1ccn2ncc(C3=NOC(C)(C)N3)c2n1)c1cc(F)ccc1Br` [Example 24], the IC50 at TRKA (setting [1]) was above 500 nM.
The compound `C[C@@H](Nc1ccn2ncc(C3=NOC(C)(C)N3)c2n1)c1ccc(F)cc1` [Example 25] displayed an IC50 on TRKA of 50 to 500 nM.
In the case of `COc1ccc(OC)c([C@@H](C)Nc2ccn3ncc(C4=NOC(C)(C)N4)c3n2)c1` [Example 29], the IC50 in the test with Ba/F3-LMNA-NTRK1-G595R was 387 nM.
`COc1c(F)cc(F)cc1[C@@H](C)Nc1ccn2ncc(C3=NOC(C)(C)N3)c2n1` [Example 30]: the IC50 is 5.8 nM in the test with Ba/F3-LMNA-NTRK1, 2.2 nM with Ba/F3-CD74-ROS1, 7 nM in the test on Ba/F3-LMNA-NTRK1-G595R and 16.3 nM in the test with Ba/F3-CD74-ROS1-G2032R.
Consider `C[C@@H](Nc1ccn2ncc(C3=NOC(C)(C)N3)c2n1)c1cccc(F)c1` [Example 31], for which the results for the IC50 in the test on Ba/F3-LMNA-NTRK1-G595R and in the test on Ba/F3-CD74-ROS1-G2032R were 3.5 nM and 54.4 nM, respectively.
With `COc1cc(F)c(F)cc1[C@@H](C)Nc1ccn2ncc(C3=NOC(C)(C)N3)c2n1` [Example 32], the IC50 with Ba/F3-LMNA-NTRK1 stood at 45.8 nM; in the test with Ba/F3-CD74-ROS1, 52.1 nM; in the test on Ba/F3-LMNA-NTRK1-G595R it was 161 nM.
As for `C[C@@H](Nc1ccn2ncc(C3=NOC(C)(C)N3)c2n1)c1cc(F)ccc1C(F)(F)F` [Example 33], the IC50 in the test on Ba/F3-LMNA-NTRK1 was 25.9 nM; in the test on Ba/F3-CD74-ROS1, 15.7 nM; in the test on Ba/F3-LMNA-NTRK1-G595R it was 386 nM; with Ba/F3-CD74-ROS1-G2032R it was 120 nM.
Consider `COc1ccc(F)cc1[C@H](C)Nc1ccn2ncc(C3=NOC(C)(C)N3)c2n1` [Example 41], for which, on TRKA, the IC50 is 50 to 500 nM.
On the same count and under the same terms, for `Cc1ccc(F)cc1[C@H](C)Nc1ccn2ncc(C3=NOC(C)(C)N3)c2n1` [Example 43] the value was 50 to 500 nM.
As for `COc1ccc(F)cc1[C@@H](C)Nc1ccn2ncc(C3=NOC4(CCCCC4)N3)c2n1` [Example 45], the IC50 against TRKA (G677C) lay in the range of 5 to 50 nM.
The compound `COc1ccc(F)cc1[C@@H](C)Nc1ccn2ncc(C3=NOC4(CCOCC4)N3)c2n1` [Example 46] returned an IC50 against TRKA (G677C) of 5 to 50 nM.
`COc1ccc(F)cc1[C@@H](C)Nc1ccn2ncc(C3=NOC(C)(c4ccc(F)cc4)N3)c2n1` (some centres unmarked) [Example 47] came in with an IC50 against TRKA (G677C) of 50 to 500 nM.
Regarding `COc1ccc(F)cc1[C@@H](C)Nc1ccn2ncc(C3=NOC(C)(c4ccccn4)N3)c2n1` (some centres unmarked) [Example 48], on TRKA (G677C), the IC50 fell in the range of 50 to 500 nM.
Regarding `C[C@@H](Nc1ccn2ncc(C3=NOC(C)(C)N3)c2n1)c1cc(F)cc2ccccc12` [Example 53], the IC50 in the test on Ba/F3-LMNA-NTRK1 stood at 18.2 nM; in the test with Ba/F3-CD74-ROS1, 8.4 nM; with Ba/F3-LMNA-NTRK1-G595R, 30.1 nM; in the test on Ba/F3-CD74-ROS1-G2032R, 81.1 nM.
With `C[C@H](Nc1ccn2ncc(C3=NOC(C)(C)N3)c2n1)c1cc(F)cc2ccccc12` [Example 54], the IC50 was below 0.5 nM at TRKC; below 0.5 nM on ROS1 (setting [2]); below 0.5 nM on ROS1 (G2032R) (setting [3]); 0.5 to 5 nM against TRKA (G595R); 0.5 to 5 nM against TRKB; 0.5 to 5 nM at TRKA.
Turning to `COC(=O)N1CCC2(CC1)NC(c1cnn3ccc(N[C@H](C)c4cc(F)ccc4OC)nc13)=NO2` [Example 55], the IC50 against TRKC is below 0.5 nM; on ROS1 (setting [2]) it was below 0.5 nM; at ROS1 (G2032R) (setting [3]), below 0.5 nM; in the test on Ba/F3-LMNA-NTRK1, 26.7 nM; at TRKA (G595R), 0.5 to 5 nM; in the test on Ba/F3-CD74-ROS1, 6.6 nM. For the same compound, the IC50 against TRKB is below 0.5 nM; in the test with Ba/F3-LMNA-NTRK1-G595R, 25.4 nM; in the test with Ba/F3-CD74-ROS1-G2032R it was 47.9 nM; on TRKA, 0.5 to 5 nM.
In the case of `C[C@@H](Nc1ccn2ncc(C3=NCC(C)(C)N3)c2n1)c1cc(F)ccc1F` [Example 65], the IC50 on TRKC is below 0.5 nM; at ROS1 (setting [2]) it was below 0.5 nM; at ROS1 (G2032R) (setting [3]) it was below 0.5 nM; on TRKA (G595R), 0.5 to 5 nM; on TRKB, 0.5 to 5 nM; against TRKA it was 0.5 to 5 nM.
As for `CCOCC1(C)NC(c2cnn3ccc(N[C@H](C)c4cc(F)ccc4O)nc23)=NO1` (some centres unmarked) [Example 66], the IC50 is below 0.5 nM at TRKC; below 0.5 nM on ROS1 (setting [2]); below 0.5 nM at ROS1 (G2032R) (setting [3]); 0.5 to 5 nM on TRKA (G595R); 0.5 to 5 nM at TRKB; 0.5 to 5 nM against TRKA.
For `Cc1nc(-c2cnn3ccc(N[C@H](C)c4cc(F)ccc4O)nc23)no1` [Example 67], the IC50 at TRKC was 0.5 to 5 nM; against ROS1 it was 0.5 to 5 nM; against ROS1 (G2032R), 5 to 50 nM; on TRKA (G595R) it was 5 to 50 nM; at TRKB, 0.5 to 5 nM; against TRKA it was 5 to 50 nM.
As for `C[C@@H](Nc1ccn2ncc(C3=NOC(C)(C)N3)c2n1)c1cc(F)ccc1O` [Example 68], the IC50 at TRKC, at ROS1 (setting [2]), at ROS1 (G2032R) (setting [3]), at TRKA (G595R) (setting [4]), against TRKB and at TRKA (setting [1]) was below 0.5 nM each time.
`CCCCC1NC(c2cnn3ccc(N[C@H](C)c4cc(F)ccc4O)nc23)=NO1` (some centres unmarked) [Example 69]: the IC50 against TRKC, at ROS1 (setting [2]), on ROS1 (G2032R) (setting [3]), at TRKA (G595R) (setting [4]), against TRKB and at TRKA (setting [1]) was below 0.5 nM in each case.
On to `COc1ccc(F)cc1[C@@H](C)Oc1ccn2ncc(C3=NOC(C)(C)N3)c2n1` [Example 71], for which the IC50 against TRKC was 0.5 to 5 nM; on ROS1, 0.5 to 5 nM; on ROS1 (G2032R), 0.5 to 5 nM; with Ba/F3-LMNA-NTRK1, 76.9 nM; at TRKA (G595R) it was 0.5 to 5 nM; in the test on Ba/F3-CD74-ROS1, 32.2 nM. The IC50 at TRKB is 0.5 to 5 nM; in the test with Ba/F3-LMNA-NTRK1-G595R, 110 nM; with Ba/F3-CD74-ROS1-G2032R, 185 nM; against TRKA, 0.5 to 5 nM.
